Data: ChEMBL document CHEMBL1201862, “PubChem BioAssay data set” (2004)
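Results reflect a 48-hour exposure of cells in 96-well plates to compound at five concentrations. At the GI50, growth is halved.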 The source made the active and inactive calls. Rule as the data show it: active = GI50 up to about 1.1 µM and inactive = higher.

Columns and labels:
Assay in all cases: NCI anticancer screen, dose series, 48 h
K562 = system: K562
NCI-H23 = system: NCI-H23
786-0 = system: 786-0
SF-268 = system: SF-268
OVCAR-8 = system: OVCAR-8
SK-MEL-2 = system: SK-MEL-2
DU-145 = system: DU-145
Malme-3M = system: Malme-3M
SK-MEL-5 = system: SK-MEL-5
NCI-H226 = system: NCI-H226
HCC 2998 = system: HCC 2998
A549 = system: A549
CCRF-CEM = system: CCRF-CEM
U-251 = system: U-251
ACHN = system: ACHN
MOLT-4 = system: MOLT-4
OVCAR-3 = system: OVCAR-3
UO-31 = system: UO-31
Hs-578T = system: Hs-578T
M14 = system: M14
MCF7 = system: MCF7
BT-549 = system: BT-549
PC-3 = system: PC-3
SK-OV-3 = system: SK-OV-3
SN12C = system: SN12C
T47D = system: T47D
MDA-MB-231 = system: MDA-MB-231
RPMI-8226 = system: RPMI-8226
COLO 205 = system: COLO 205
MDA-N = system: MDA-N
HOP-62 = system: HOP-62
OVCAR-5 = system: OVCAR-5
HCT-116 = system: HCT-116
NCI-H460 = system: NCI-H460
RXF 393 = system: RXF 393
UACC-257 = system: UACC-257
LOX IMVI = system: LOX IMVI
EKVX = system: EKVX
MDA-MB-435 = system: MDA-MB-435
NCI-H522 = system: NCI-H522
SF-539 = system: SF-539
HT-29 = system: HT-29
A498 = system: A498
HCT-15 = system: HCT-15
SNB-75 = system: SNB-75
SW-620 = system: SW-620
CAKI-1 = system: CAKI-1
SR = system: SR
IGROV-1 = system: IGROV-1
SF-295 = system: SF-295
HL-60 = system: HL-60
OVCAR-4 = system: OVCAR-4
HOP-92 = system: HOP-92
SK-MEL-28 = system: SK-MEL-28
SNB-19 = system: SNB-19
KM12 = system: KM12
UACC-62 = system: UACC-62
TK-10 = system: TK-10
NCI/ADR-RES = system: NCI/ADR-RES

COc1ccc2c(c1OC)C[C@@H]1c3c(cc4c(c3-2)OCO4)CCN1C
GI50 (K562): 20.3 µM (inactive)
GI50 (NCI-H23): 50.1 µM (inactive)
GI50 (786-0): 24.2 µM (inactive)
GI50 (SF-268): 37.1 µM (inactive)
GI50 (OVCAR-8): 30.1 µM (inactive)
GI50 (SK-MEL-2): 28.2 µM (inactive)
GI50 (DU-145): 41.1 µM (inactive)
GI50 (Malme-3M): 30.6 µM (inactive)
GI50 (SK-MEL-5): 16.7 µM (inactive)
GI50 (NCI-H226): 18.1 µM (inactive)
GI50 (HCC 2998): 21.3 µM (inactive)
GI50 (A549): 40.2 µM (inactive)
GI50 (CCRF-CEM): 20.3 µM (inactive)
GI50 (U-251): 26.9 µM (inactive)
GI50 (ACHN): 27.5 µM (inactive)
GI50 (MOLT-4): 24.3 µM (inactive)
GI50 (OVCAR-3): 41.1 µM (inactive)
GI50 (UO-31): 10.8 µM (inactive)
GI50 (Hs-578T): 34.4 µM (inactive)
GI50 (M14): 25.9 µM (inactive)
GI50 (MCF7): 16.6 µM (inactive)
GI50 (BT-549): 23.8 µM (inactive)
GI50 (PC-3): 17.5 µM (inactive)
GI50 (SK-OV-3): 23.3 µM (inactive)
GI50 (SN12C): 42 µM (inactive)
GI50 (T47D): 28.8 µM (inactive)
GI50 (MDA-MB-231): 33.7 µM (inactive)
GI50 (RPMI-8226): 18.5 µM (inactive)
GI50 (COLO 205): 18.6 µM (inactive)
GI50 (MDA-N): 44.1 µM (inactive)
GI50 (HOP-62): 72.8 µM (inactive)
GI50 (OVCAR-5): 59 µM (inactive)
GI50 (HCT-116): 20.7 µM (inactive)
GI50 (NCI-H460): 32.1 µM (inactive)
GI50 (RXF 393): 20.5 µM (inactive)
GI50 (UACC-257): 20 µM (inactive)
GI50 (LOX IMVI): 15.3 µM (inactive)
GI50 (EKVX): 20.7 µM (inactive)
GI50 (MDA-MB-435): 27.5 µM (inactive)
GI50 (NCI-H522): 19.9 µM (inactive)
GI50 (SF-539): 19 µM (inactive)
GI50 (HT-29): 15.8 µM (inactive)
GI50 (A498): 19.1 µM (inactive)
GI50 (HCT-15): 22.6 µM
GI50 (SNB-75): 17.1 µM (inactive)
GI50 (SW-620): 29.8 µM (inactive)
GI50 (CAKI-1): 31.2 µM (inactive)
GI50 (SR): 31.5 µM (inactive)
GI50 (IGROV-1): 25.4 µM (inactive)
GI50 (SF-295): 15.6 µM (inactive)
GI50 (HL-60): 8.63 µM (inactive)
GI50 (OVCAR-4): 25.4 µM (inactive)
GI50 (HOP-92): 12.3 µM (inactive)
GI50 (SK-MEL-28): 29.2 µM (inactive)
GI50 (SNB-19): 42.9 µM (inactive)
GI50 (KM12): 28.8 µM (inactive)
GI50 (UACC-62): 15.2 µM (inactive)
GI50 (TK-10): 25 µM (inactive)

NC(Cc1ccc(OCc2ccccc2)cn1)C(=O)OCc1ccccc1 (centres undefined)
GI50 (K562): > 100 µM (inactive)
GI50 (NCI-H23): > 100 µM (inactive)
GI50 (786-0): > 100 µM (inactive)
GI50 (OVCAR-8): > 100 µM (inactive)
GI50 (DU-145): > 100 µM (inactive)
GI50 (Malme-3M): > 100 µM (inactive)
GI50 (SK-MEL-5): > 100 µM (inactive)
GI50 (NCI-H226): > 100 µM (inactive)
GI50 (HCC 2998): 52.4 µM (inactive)
GI50 (A549): > 100 µM (inactive)
GI50 (CCRF-CEM): > 100 µM (inactive)
GI50 (U-251): > 100 µM (inactive)
GI50 (ACHN): > 100 µM (inactive)
GI50 (OVCAR-3): > 100 µM (inactive)
GI50 (UO-31): > 100 µM (inactive)
GI50 (Hs-578T): > 100 µM (inactive)
GI50 (MCF7): > 100 µM (inactive)
GI50 (BT-549): > 100 µM (inactive)
GI50 (PC-3): > 100 µM (inactive)
GI50 (SN12C): > 100 µM (inactive)
GI50 (MDA-MB-231): > 100 µM (inactive)
GI50 (RPMI-8226): > 100 µM (inactive)
GI50 (COLO 205): > 100 µM (inactive)
GI50 (MDA-N): > 100 µM (inactive)
GI50 (HOP-62): > 100 µM (inactive)
GI50 (OVCAR-5): > 100 µM (inactive)
GI50 (HCT-116): > 100 µM (inactive)
GI50 (NCI-H460): > 100 µM (inactive)
GI50 (RXF 393): > 100 µM (inactive)
GI50 (UACC-257): > 100 µM (inactive)
GI50 (LOX IMVI): > 100 µM (inactive)
GI50 (EKVX): > 100 µM (inactive)
GI50 (MDA-MB-435): > 100 µM (inactive)
GI50 (NCI-H522): > 100 µM (inactive)
GI50 (SF-539): > 100 µM (inactive)
GI50 (HT-29): > 100 µM (inactive)
GI50 (A498): > 100 µM (inactive)
GI50 (HCT-15): > 100 µM
GI50 (SW-620): > 100 µM (inactive)
GI50 (CAKI-1): > 100 µM (inactive)
GI50 (SR): > 100 µM (inactive)
GI50 (IGROV-1): > 100 µM (inactive)
GI50 (SF-295): > 100 µM (inactive)
GI50 (HL-60): > 100 µM (inactive)
GI50 (OVCAR-4): > 100 µM (inactive)
GI50 (HOP-92): > 100 µM (inactive)
GI50 (NCI/ADR-RES): > 100 µM (inactive)
GI50 (SK-MEL-28): > 100 µM (inactive)
GI50 (SNB-19): > 100 µM (inactive)
GI50 (KM12): > 100 µM (inactive)
GI50 (TK-10): > 100 µM (inactive)

CC1=C(CO)C(=O)O[C@@H]([C@@H](CO)[C@H]2CCC3C4C[C@@H](O)[C@@]5(O)CC=CC(=O)[C@]5(C)C4CC[C@@]32C)C1 (some centres undefined)
GI50 (K562): 31.8 µM (inactive)
GI50 (NCI-H23): 67.9 µM (inactive)
GI50 (786-0): 28.6 µM (inactive)
GI50 (SF-268): 43.3 µM (inactive)
GI50 (OVCAR-8): 73.1 µM (inactive)
GI50 (SK-MEL-2): 53.6 µM (inactive)
GI50 (DU-145): > 100 µM (inactive)
GI50 (Malme-3M): 94 µM (inactive)
GI50 (SK-MEL-5): 51.4 µM (inactive)
GI50 (NCI-H226): > 100 µM (inactive)
GI50 (HCC 2998): 29.2 µM (inactive)
GI50 (A549): > 100 µM (inactive)
GI50 (CCRF-CEM): 34.1 µM (inactive)
GI50 (ACHN): 36.4 µM (inactive)
GI50 (MOLT-4): 36.3 µM (inactive)
GI50 (OVCAR-3): 22 µM (inactive)
GI50 (UO-31): 24.4 µM (inactive)
GI50 (Hs-578T): 59.2 µM (inactive)
GI50 (M14): 53.7 µM (inactive)
GI50 (MCF7): 50 µM (inactive)
GI50 (BT-549): 26.4 µM (inactive)
GI50 (SK-OV-3): > 100 µM (inactive)
GI50 (SN12C): 55.2 µM (inactive)
GI50 (T47D): 86.3 µM (inactive)
GI50 (MDA-MB-231): 59.2 µM (inactive)
GI50 (RPMI-8226): 34.3 µM (inactive)
GI50 (COLO 205): 30 µM (inactive)
GI50 (MDA-N): 71.9 µM (inactive)
GI50 (HOP-62): 23.5 µM (inactive)
GI50 (OVCAR-5): 83.9 µM (inactive)
GI50 (HCT-116): 37.2 µM (inactive)
GI50 (RXF 393): 15.2 µM (inactive)
GI50 (UACC-257): 58.6 µM (inactive)
GI50 (LOX IMVI): 38.5 µM (inactive)
GI50 (EKVX): > 100 µM (inactive)
GI50 (MDA-MB-435): 38.5 µM (inactive)
GI50 (NCI-H522): 39.2 µM (inactive)
GI50 (SF-539): 53.8 µM (inactive)
GI50 (HT-29): 44.2 µM (inactive)
GI50 (A498): 63.4 µM (inactive)
GI50 (HCT-15): 32 µM
GI50 (SNB-75): 35.6 µM (inactive)
GI50 (SW-620): 29 µM (inactive)
GI50 (CAKI-1): > 100 µM (inactive)
GI50 (SR): 34.9 µM (inactive)
GI50 (IGROV-1): > 100 µM (inactive)
GI50 (SF-295): > 100 µM (inactive)
GI50 (HL-60): 31.2 µM (inactive)
GI50 (OVCAR-4): 91.8 µM (inactive)
GI50 (HOP-92): 71 µM (inactive)
GI50 (NCI/ADR-RES): > 100 µM (inactive)
GI50 (SNB-19): > 100 µM (inactive)
GI50 (KM12): 43.3 µM (inactive)
GI50 (UACC-62): 47 µM (inactive)
GI50 (TK-10): > 100 µM (inactive)
